Data on 2 molecules can be found in patent US20090111811A1, “1,2,4-TRIAZOLE CARBOXYLIC ACID DERIVATIVES AS MODULATORS OF MGLUR5” (AstraZeneca AB, priority 2007, published 2009).

Some results are limits rather than exact numbers.

One data set has as its target T1, human mGluR5d (Homo sapiens, UniProt P41594).
T1 construct: expressed in transfected cells; The cells are kept under Hygromycin B and Zeocin selection; The separate IP3 assay names GHEK cells stably expressing human mGluR5d
The experiment in a line: FLIPR assay, functional assessment of mGluR5 antagonism (intracellular calcium mobilization). The following applies: cells expressing human mGluR5d; IC50 determination; read-out: FLIPR hmGluR5d. The data set is classed as cell-based. The source says:
Functional Assessment of mGluR5 Antagonism in Cell Lines Expressing mGluR5D
The properties of the compounds of the invention can be analyzed using standard assays for pharmacological activity. Examples of glutamate receptor assays are well known in the art as described in for example Aramori et al., Neuron 8:757 (1992), Tanabe et al., Neuron 8:169 (1992), Miller et al., J. Neuroscience 15: 6103 (1995), Balazs, et al., J Neurochemistry 69:151 (1997). The methodology described in these publications is incorporated herein by reference. […]
Cells expressing human mGluR5d as described in WO97/05252 cultured in a mixture of high glucose DMEM with Glutamax (31966-021)(500 mL), 10% dialyzed fetal bovine serum (Hyclone #SH30079.03)(56 mL), 200 μg/mL Hygromycin B (Invitrogen 45-0430, 50 mg/mL)(2.2 mL), 200 μg/mL Zeocin (Invitrogen #R250-01; 100 mg/mL)(1.1 mL) are seeded at a density of 100,000 cells per well on collagen coated clear bottom 96-well plates with black sides and cells were allowed to adhere over night before experiments. […] The fluorescence signal is sampled 50 times at 1-second intervals followed by 3 samples at 5-second intervals immediately after each of the two additions. Responses are measured as the difference between the peak heights of the response to agonist, less the background fluorescence within the sample period. […]
For orientation: Calcium assays in cells follow changes in intracellular calcium, usually with a dye or a luminescent sensor.

The nature of data set [1]: Determination of brain to plasma ratio in rat. The data set is classed as in vivo. The settings on record: brain and plasma, female Sprague Dawley rats, read-out: Brain/Plasma Ratio of compound in Rat. Here is the method:
Brain to plasma ratios are estimated in female Sprague Dawley rats. The compound is dissolved in water or another appropriate vehicle. For determination of brain to plasma ratio the compound is administrated as a subcutaneous, or an intravenous bolus injection, or an intravenous infusion, or an oral administration. At a predetermined time point after the administration a blood sample is taken with cardiac puncture. The rat is terminated by cutting the heart open, and the brain is immediately retained. The blood samples are collected in heparinized tubes and centrifuged within 30 minutes, in order to separate the plasma from the blood cells. The plasma is transferred to 96-well plates and stored at −20° C. until analysis. The brains are divided in half, and each half is placed in a pre-tarred tube and stored at −20° C. until analysis. Prior to the analysis, the brain samples are thawed and 3 mL/g brain tissue of distilled water is added to the tubes. The brain samples are sonicated in an ice bath until the samples are homogenized. Both brain and plasma samples are precipitated with acetonitrile. After centrifugation, the supernatant is diluted with 0.2% formic acid. […] After reconstitution of the residuals the samples are ready for injection onto the HPLC column.

T1 sequence (P41594 21-942 isoform P41594-3 limits assumed): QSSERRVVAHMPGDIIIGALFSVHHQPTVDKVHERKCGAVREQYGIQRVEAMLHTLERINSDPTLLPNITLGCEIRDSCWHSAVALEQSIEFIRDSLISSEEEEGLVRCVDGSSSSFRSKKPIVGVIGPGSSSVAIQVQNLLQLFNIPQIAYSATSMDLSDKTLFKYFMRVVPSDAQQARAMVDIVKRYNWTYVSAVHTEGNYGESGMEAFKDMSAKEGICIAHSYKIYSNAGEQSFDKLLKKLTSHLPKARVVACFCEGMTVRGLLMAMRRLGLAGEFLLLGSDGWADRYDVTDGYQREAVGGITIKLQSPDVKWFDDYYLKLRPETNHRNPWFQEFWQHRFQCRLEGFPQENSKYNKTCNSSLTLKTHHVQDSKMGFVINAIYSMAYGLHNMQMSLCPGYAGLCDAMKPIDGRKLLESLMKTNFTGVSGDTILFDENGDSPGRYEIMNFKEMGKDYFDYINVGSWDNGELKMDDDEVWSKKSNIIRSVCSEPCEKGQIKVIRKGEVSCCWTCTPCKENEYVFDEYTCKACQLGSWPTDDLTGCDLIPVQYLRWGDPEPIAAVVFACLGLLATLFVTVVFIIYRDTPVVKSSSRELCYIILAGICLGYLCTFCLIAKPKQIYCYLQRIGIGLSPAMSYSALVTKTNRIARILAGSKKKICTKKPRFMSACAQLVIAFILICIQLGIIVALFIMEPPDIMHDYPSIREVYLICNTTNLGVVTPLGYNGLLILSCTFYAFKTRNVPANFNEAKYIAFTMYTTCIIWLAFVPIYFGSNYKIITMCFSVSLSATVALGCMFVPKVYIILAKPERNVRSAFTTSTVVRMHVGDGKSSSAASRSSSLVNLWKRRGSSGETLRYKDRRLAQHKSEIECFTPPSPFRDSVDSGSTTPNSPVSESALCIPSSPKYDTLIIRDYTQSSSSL

With `CNC(=O)c1ccc(-c2nnc(N3CCC[C@@H]3c3cc(-c4cccc(Cl)c4)on3)n2C)cc1` [Example 6.2, 4-[5-[(2R)-2-[5-(3-Chlorophenyl)1,2-oxazol-3-yl]pyrrolidin-1-yl]-4-methyl-1,2,4-triazo1-3-yl]-N-methyl-benzamide], the IC50 on human mGluR5d amounted to 0.016 µM. For the same molecule, the Kp in data set [1] was under 0.01.
Consider `Cn1c(-c2ccc(C(N)=O)cc2)nnc1N1CCC[C@@H]1c1cc(-c2cccc(Cl)c2)on1` [Example 6.1, 4-[5-[(2R)-2-[5-(3-Chlorophenyl)1,2-oxazol-3-yl]pyrrolidin-1-yl]-4-methyl-1,2,4-triazol-3-yl]benzamide], for which the IC50 at human mGluR5d worked out at 0.011 µM. For the same molecule, in data set [1], the Kp is under 0.01.
